According to PMC6320914 (Pharmaceutics, 2018):
Entries after “also recorded” stand apart in the source; their conditions may differ. Square brackets hold non-standard residues; d marks the D form. Peptide text beside a SMILES is read from it. * marks the point of attachment. Daunorubicin(13-NOCH2CO) = COc1cccc2c1C(=O)c1c(O)c3c(c(O)c1C2=O)C[C@@](O)(C(C)=NOCC(=O)*)C[C@@H]3O[C@H]1C[C@H](N)[C@H](O)[C@H](C)O1; pGlu = O=C1CC[C@@H](C(=O)O)N1; Butyryl = CCCC(=O)*

Legend:
[1] = test system: MCF-7 human breast cancer cells; format: cell-based; conditions: 24 h treatment in serum-free medium (0.068–150 µM), then 48 h in complete medium; alamarBlue fluorescence; mean ± SE, performed twice, four parallels
Experimental: (§1) Dulbecco’s Modified Eagle Medium (DMEM, Lonza, Basel, Switzerland), supplemented with 10% (v/v) Fetal Bovine Serum (FBS, Lonza), L-glutamine (2 mM, Lonza), non-essential amino acids (NEAA, Sigma-Aldrich Kft), sodium pyruvate (1 mM, Lonza) and Penicillin-Streptomycin (Lonza) was used to culture MCF-7 human breast adenocarcinoma cells (ATCC:HTB-22). HT-29 human colon adenocarcinoma cells (ATCC:HTB-38) were maintained in RPMI-1640 (Lonza), supplied with 10% FBS, L-glutamine and Penicillin-Streptomycin. MDA-MB-231 breast adenocarcinoma cells were cultured in DMEM (Lonza), supplemented with 10% FBS and Penicillin-Streptomycin. Cells were maintained in plastic culture dishes at 37 °C with a humidified atmosphere containing 5% CO2/95% air.
(§2) 5 × 10^3 cells per well were seeded to 96-well plates (Sarstedt, Nümbrecht, Germany), in a complete cell medium. After 24 h, the cells were treated with bioconjugates in a serum-free medium (concentration range 0.068–150 µM, control wells were treated with a serum-free medium). On the next day, cells were washed two times with a serum-free medium and incubated in a complete medium for 48 h. The cell viability was determined using alamarBlue reagent® (ThermoFisher Scientific) by following the manufacturer’s instructions. A Synergy H4 multi-mode microplate reader (BioTek, Winooski, VT, USA) was used for fluorescence detection (λEx = 570 and at λEM = 620 nm). Experiments were performed twice, using four parallels per concentration. Cell viabilities (and IC50 values) were calculated with Origin Pro8 (OriginLab Corp., Northampton, MA, USA.) using a nonlinear regression (sigmoidal dose–response).

[2] = test system: HT-29 human colon cancer cells; format: cell-based; conditions: 24 h treatment in serum-free medium (0.068–150 µM), then 48 h in complete medium; alamarBlue fluorescence; mean ± SE, performed twice, four parallels
Experimental: as §1, §2

[3] = test system: MDA-MB-231 human breast cancer cells; format: cell-based; conditions: 24 h treatment in serum-free medium (0.068–150 µM), then 48 h in complete medium; alamarBlue fluorescence; mean ± SE, performed twice, four parallels
Experimental: as §1, §2

[4] = 90% human plasma; conditions: 37 °C, up to 24 h
[5] = rat liver lysosomal homogenate in 0.2 M NH4OAc buffer (pH 5); conditions: 37 °C, up to 24 h
[6] = target: T1, GnRH-RI expressed on human prostate cancer (Homo sapiens, UniProt P30968); design: method as in PMID 10647698, PMID 20859992; conditions: concentrations up to 1 µM; cited from earlier work
T1 construct: Tissue samples of human prostate cancer cells were obtained from a patient at the time of initial surgical treatment; from tissue; host or cells: human prostate cancer surgical specimen, cell membrane homogenate
T1 sequence (P30968 1-328): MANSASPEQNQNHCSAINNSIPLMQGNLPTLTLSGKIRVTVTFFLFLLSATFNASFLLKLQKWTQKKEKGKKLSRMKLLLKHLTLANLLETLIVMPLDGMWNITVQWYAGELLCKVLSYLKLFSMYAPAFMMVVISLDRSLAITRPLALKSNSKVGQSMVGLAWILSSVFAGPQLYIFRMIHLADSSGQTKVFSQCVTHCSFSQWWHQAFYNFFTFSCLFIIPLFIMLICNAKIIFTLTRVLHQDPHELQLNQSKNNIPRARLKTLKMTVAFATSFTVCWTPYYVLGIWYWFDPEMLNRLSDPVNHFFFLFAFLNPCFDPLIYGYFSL

[7] = target: T1, GnRH-RI expressed on human prostate cancer; assay: Radioligand competition with [125I]-triptorelin, human prostate cancer membranes; format: binding; conditions: membrane fractions of human prostate cancer specimens, Figure 5
Experimental: Ligand competition assays with radiolabeled triptorelin were performed to evaluate the binding affinity of K2 and 10 to GnRH-RI expressed on human pituitary and human prostate cancer cells as reported earlier. Tissue samples of human prostate cancer cells were obtained from a patient at the time of initial surgical treatment and normal human pituitary tissue (anterior lobe) derived by autopsy. All subjects gave their informed consent for inclusion before they participated in the study. The collection and the use of these specimens for our studies were conducted in accordance with the Declaration of Helsinki and approved by the local Institutional Ethics Committee (UD REC/IEC 4831-2017). To study the binding affinity of the compounds, cell membrane homogenates were prepared as previously described. Apart from that, triptorelin was radioiodinated using the chloramine-T method, followed by purification by RP-HPLC [34, 40, 41, 44]. To determine the binding affinities of the nonradio-labeled GnRH-III bioconjugates to GnRH-RI, the displacement of [^125I]-GnRH-I-[^6D-Trp] was studied by an in vitro ligand competition assay. […] To determine the protein concentration by the method of Bradford, a Bio-Rad protein assay kit (Bio-Rad Laboratories, USA) was used. The LIGAND-PC computerized curve-fitting program of Munson and Rodbard was used to determine the receptor binding characteristics and IC50 values.

For `CCCC(=O)NCCCC[C@H](NC(=O)[C@H](Cc1c[nH]c2ccccc12)NC(=O)[C@H](Cc1c[nH]cn1)NC(=O)[C@@H]1CCC(=O)N1)C(=O)N[C@@H](Cc1c[nH]cn1)C(=O)N[C@@H](CC(=O)O)C(=O)N[C@@H](Cc1c[nH]c2ccccc12)C(=O)N[C@@H](CCCCNC(=O)CON=C(C)[C@]1(O)Cc2c(O)c3c(c(O)c2[C@@H](O[C@H]2C[C@H](N)[C@H](O)[C@H](C)O2)C1)C(=O)c1c(OC)cccc1C3=O)C(=O)N1CCC[C@H]1C(=O)NCC` [compound 14] ([pGlu]HWK(Butyryl)HDWK(Daunorubicin(13-NOCH2CO))P-NHEt), the IC50 [1] was 2.23 ± 0.4 µM, the IC50 [2] was 17.84 ± 0.08 µM and the IC50 [3] was 12.4 ± 2.3 µM.

For <E-D-Tic-K(Bu)HDWK(Dau=Aoa)PG-NH2, the not cleaved [4] was “stable for at least 24 h”, the cleaved bond [5] was “Lys(Bu)4-His5; also recorded: His5-Asp6; also recorded: Asp6-Trp7; also recorded: Trp7-Lys(Dau=Aoa)8; also recorded: Lys(Dau=Aoa)8-Pro9; also recorded: Pro9-Gly10” and the fragment found [5] was “<E-D-Tic-K(Bu)HDWK(Dau=Aoa)-OH; also recorded: <E-D-Tic-K(Bu)HD-OH; also recorded: <E-D-Tic-K(Bu)H-OH; also recorded: H-K(Dau=Aoa)P-OH; also recorded: H-Lys(Dau=Aoa)-OH, 1 h”.

For <EHWK(Bu)HDWK(Dau=Aoa)PG-NH2, the not cleaved [4] was “stable for at least 24 h” and the cleaved bond [5] was “Pro9-Gly10; also recorded: His2-Trp3; also recorded: Trp3-Lys(Bu)4; also recorded: Lys(Bu)4-His5, first_seen, 5 min; also recorded: His5-Asp6; also recorded: Asp6-Trp7; also recorded: Trp7-Lys(Dau=Aoa)8; also recorded: Lys(Dau=Aoa)8-Pro9”.

For bombesin, the displacement of triptorelin [6] is listed as “not able to displace triptorelin”.

In the case of epidermal growth factor, the “displacement of [125I]-GnRH-I-[6D-Trp] binding” value [7] is reported as “did not displace the radioligand”.

For human growth hormone, the “displacement of [125I]-GnRH-I-[6D-Trp] binding” value [7] was “did not displace the radioligand”.

With somatostatin [reference compound] the “displacement of [125I]-GnRH-I-[6D-Trp] binding” value [7] was “did not displace the radioligand”.

In the case of somatostatin-14, the displacement of triptorelin [6] is listed as “not able to displace triptorelin”.
